# Experimental data reported in US20260085034A1, “N-(BENZHYDRYL)CYCLOALKYLCARBOXAMIDE DERIVATIVES AS INHIBITORS OF GLYCOGEN SYNTHASE 1 (GYS1) AND METHODS OF USE THEREOF” (Maze Therapeutics, Inc., priority 2022, published 2026).
# Target: T1, recombinant hGYS1/GN1 protein (Homo sapiens, UniProt P13807)
# T1 sequence (P13807 1-737): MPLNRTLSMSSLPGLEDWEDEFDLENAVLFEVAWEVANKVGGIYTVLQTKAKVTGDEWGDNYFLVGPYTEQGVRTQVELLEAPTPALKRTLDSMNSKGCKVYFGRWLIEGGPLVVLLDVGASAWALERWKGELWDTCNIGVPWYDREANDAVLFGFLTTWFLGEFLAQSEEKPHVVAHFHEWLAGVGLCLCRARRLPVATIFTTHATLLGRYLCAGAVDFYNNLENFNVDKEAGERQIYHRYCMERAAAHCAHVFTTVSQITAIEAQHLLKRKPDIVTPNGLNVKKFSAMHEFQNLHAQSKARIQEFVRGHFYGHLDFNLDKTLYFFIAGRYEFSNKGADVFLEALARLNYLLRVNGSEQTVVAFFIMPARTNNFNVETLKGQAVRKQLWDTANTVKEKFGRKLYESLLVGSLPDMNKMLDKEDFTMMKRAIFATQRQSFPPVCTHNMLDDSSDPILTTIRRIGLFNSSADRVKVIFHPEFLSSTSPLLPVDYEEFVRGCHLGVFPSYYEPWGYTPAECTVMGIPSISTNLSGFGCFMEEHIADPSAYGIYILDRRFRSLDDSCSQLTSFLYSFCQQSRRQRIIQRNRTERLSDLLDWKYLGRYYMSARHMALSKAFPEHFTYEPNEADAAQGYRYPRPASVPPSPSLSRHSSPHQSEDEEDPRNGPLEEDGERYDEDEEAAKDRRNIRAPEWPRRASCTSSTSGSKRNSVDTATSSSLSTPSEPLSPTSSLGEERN
# T1 sequence (P46976 1-350 partner): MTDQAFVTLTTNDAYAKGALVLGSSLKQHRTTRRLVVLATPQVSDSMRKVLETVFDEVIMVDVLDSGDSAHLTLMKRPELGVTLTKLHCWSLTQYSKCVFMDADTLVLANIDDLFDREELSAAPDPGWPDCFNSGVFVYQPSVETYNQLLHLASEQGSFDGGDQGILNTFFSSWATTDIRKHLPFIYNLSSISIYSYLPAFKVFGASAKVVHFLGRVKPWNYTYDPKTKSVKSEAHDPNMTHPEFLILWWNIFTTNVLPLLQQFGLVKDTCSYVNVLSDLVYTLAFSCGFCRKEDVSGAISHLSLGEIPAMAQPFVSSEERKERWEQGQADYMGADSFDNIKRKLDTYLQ
# Test: GYS1 coupled enzyme assay (PK/LDH)
# Assay type: biochemical
# Conditions: geometric mean of at least 2 assay runs; NADH absorbance at 340 nm
# In short: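 Recombinant hGYS1/GN1 (50 nM) with 0.8 mM UDP-glucose, 0.2% glycogen and 1 mM glucose-6-phosphate in Tris pH 7.5, 2.5% DMSO. UDP formation coupled via PK/LDH to NADH oxidation, read at 340 nm over 10 min. Control-normalized slopes fit to Hill equation; IC50 as geometric mean of ≥2 runs.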
compound,measurement,value
"CC(C)c1ccc([C@@H](NC(=O)[C@H]2C[C@@H]2F)c2ccn[nH]2)cc1F (single isomer, unassigned) [compound 11]",IC50,0.145 µM
